Measurements reported in US6582952B1 (priority 1997, dated 2003).
“Also recorded” adds a separate entry of the source.

System: Bacillus licheniformis

**Q.** For `Nc1n[nH]c(=O)[nH]1` [amine, 5-amino-1,2,4-triazole-3-one], which “stability of the amine formed in the incubation mixture” value is on record?
**A.** Its value is “does not undergo any subsequent transformation; also recorded: stable”.
